Data as given in US7462614B2, “Imidazotriazine compounds” (Smithkline Beecham Corporation, priority 2003, dated 2008).

Molecular target: T1, truncated human PLK1 (kinase domain) (Homo sapiens, UniProt P53350)
T1 construct: made in house; host or cells: baculovirus-infected T. ni insect cells
Assay: Assay for Inhibition of PLK1 (33P SPA enzyme activity)
Type: biochemical
Conditions: 1 μM ATP, 2 nM enzyme; read-out: Ave pIC50 PLK Enzyme Inhibition (converted)
Method: I. Assay for Inhibition of PLK1
A. Preparation of 6× N-Terminal His-Tagged PLK Kinase Domain
All procedures are performed at 4° C. Cells are lysed in 25 mM HEPES, 200 mM NaCl, 25 mM imidazole; pH 8.0. The homogenate is centrifuged at 14K rpm in a SLA-1500 rotor for 40 min and the supernatant filtered through a 1.2 micron filter. The supernatant is loaded onto a Nickel chelating Sepharose (Amersham Pharmacia) column and washed with 25 mM HEPES, 500 mM NaCl, 25 mM imidazole; pH 8.0. […] PLK is concentrated using a 10 kDa molecular weight cutoff membrane and then loaded onto a Superdex 75 gel filtration (Amersham BioSciences) column equilibrated in 25 mM HEPES, 1 mM DTT, 500 mM NaCl; pH 8.0. Fractions containing PLK are determined by SDS-PAGE. PLK is pooled, aliquoted and stored at […]. Samples are quality controlled using mass spectrometry.
B. Enzyme Activity±Inhibitors is Determined As Follows:
Compounds are added to the plate (1 μL in 100% DMSO).
Immediately upon addition of enzyme and thorough mixing, add 20 uL per well into 384-well white plates containing compounds and controls. […] The enzymatic reaction is stopped with 50 μl of bead mix (50 mM EDTA, 2 mg/ml Streptavidin-coated SPA beads in Standard Dulbecco's PBS (without Mg^2+and Ca^2+), and 60 μM ATP).

T1 sequence (P53350 21-346): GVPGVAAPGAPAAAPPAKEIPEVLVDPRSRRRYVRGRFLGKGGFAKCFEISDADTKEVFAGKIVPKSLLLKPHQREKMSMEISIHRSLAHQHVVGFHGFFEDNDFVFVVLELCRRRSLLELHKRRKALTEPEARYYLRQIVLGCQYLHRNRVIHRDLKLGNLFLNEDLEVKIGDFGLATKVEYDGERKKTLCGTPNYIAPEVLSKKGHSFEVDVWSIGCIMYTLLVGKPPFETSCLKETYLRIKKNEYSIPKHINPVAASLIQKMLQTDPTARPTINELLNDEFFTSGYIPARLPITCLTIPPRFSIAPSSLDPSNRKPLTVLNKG

Row | IC50 [µM] | Structure (SMILES)
1 | 0.1 to 10 | COc1ccc(Nc2ncc3c(C)nc(-c4ccccc4)n3n2)cc1 [Example 104, 5-Methyl-N-[4-(methyloxy)phenyl]-7-phenylimidazo[5,1-f][1,2,4]triazin-2-amine]
2 | 0.1 to 10 | Cc1nc(-c2cccc(Br)c2)n2nc(Nc3ccc(N4CCOCC4)c(Cl)c3)ncc12 [Example 15, 7-(3-Bromophenyl)-N-(3-chloro-4-morpholin-4-ylphenyl)-5-methylimidazo[5,1-f][1,2,4]triazin-2-amine]
3 | 0.1 to 10 | COc1cc(Nc2ncc3c(C)nc(-c4ccccc4Sc4ccccc4C#N)n3n2)cc(OC)c1OC [Example 38, 2-[(2-{5-Methyl-2-[(3,4,5-trimethoxyphenyl)amino]imidazo[5,1-f][1,2,4]triazin-7-yl}phenyl)thio]benzonitrile]
4 | 0.1 to 10 | COc1ccc(OC)c(Nc2ncc3c(C)nc(-c4cccc(C(F)(F)F)c4)n3n2)c1 [Example 55, N-(2,5-Dimethoxyphenyl)-5-methyl-7-[3-(trifluoromethyl)phenyl]-imidazo[5,1-f][1,2,4]triazin-2-amine]
5 | 0.1 to 10 | COc1cc(Nc2ncc3c(C)nc(-c4ccccc4Br)n3n2)cc(OC)c1OC [Example 3]
6 | 0.1 to 10 | COc1ccc(Nc2ncc3c(C)nc(-c4ccccc4OC)n3n2)cc1 [Example 73, 5-Methyl-7-[2-(methyloxy)phenyl]-N-[4-(methyloxy)phenyl]-imidazo[5,1-f][1,2,4]triazin-2-amine]
7 | 0.1 to 10 | CCS(=O)(=O)c1ccc(OC)c(Nc2ncc3c(C)nc(-c4cccc(Br)c4)n3n2)c1 [Example 14, 7-(3-Bromophenyl)-N-[5-(ethylsulfonyl)-2-methoxyphenyl]-5-methylimidazo[5,1-f][1,2,4]triazin-2-amine]
8 | 0.1 to 10 | Cc1nc(-c2cccc(C(F)(F)F)c2)n2nc(Nc3ccc(OCCN4CCCC4)cc3)ncc12 [Example 50, 5-Methyl-N-[4-(2-pyrrolidin-1-ylethoxy)phenyl]-7-[3-(trifluoromethyl)phenyl]imidazo[5,1-f][1,2,4]triazin-2-amine]
9 | 0.1 to 10 | COc1ccc(Nc2ncc3c(C)nc(-c4cccc(OC)c4)n3n2)cc1 [Example 74, 5-Methyl-7-[3-(methyloxy)phenyl]-N-[4-(methyloxy)phenyl]-imidazo[5,1-f][1,2,4]triazin-2-amine]
10 | 0.1 to 10 | Cc1nc(-c2ccccc2)n2nc(Nc3ccccc3)ncc12 [Example 105, 5-Methyl-N,7-diphenylimidazo[5,1-f][1,2,4]triazin-2-amine]
11 | 0.1 to 10 | COc1cc(Nc2ncc3c(C)nc(-c4ccccc4NC(=O)C(F)(F)F)n3n2)cc(OC)c1OC [Example 7, 2,2,2-Trifluoro-N-(2-{5-methyl-2-[(3,4,5-trimethoxyphenyl)amino]-imidazo[5,1-f][1,2,4]triazin-7-yl}phenyl)acetamide]
12 | 0.1 to 10 | Cc1nc(-c2ccccc2)n2nc(Nc3ccc([N+](=O)[O-])cc3)ncc12 [Example 18, 5-Methyl-N-(4-nitrophenyl)-7-phenylimidazo[5,1-f][1,2,4]triazin-2-amine]
13 | < 0.1 | Cc1nc(-c2cccc(C(F)(F)F)c2)n2nc(Nc3ccc(O)cc3)ncc12 [Example 49, 4-({5-Methyl-7-[3-(trifluoromethyl)phenyl]imidazo[5,1-f][1,2,4]triazin-2-yl}amino)phenol]
14 | > 10 | COc1ccc(Nc2ncc3c(C)nc(C(C)c4ccccc4)n3n2)cc1 (centres unmarked) [Example 77, 5-Methyl-N-[4-(methyloxy)phenyl]-7-(1-phenylethyl)imidazo[5,1-f][1,2,4]triazin-2-amine]
15 | > 10 | COc1cc(Nc2ncc3c(C)nc(-c4cccc(Nc5ccc(CN6CCN(C)CC6)cc5)c4)n3n2)cc(OC)c1OC [Example 68, 5-Methyl-7-[3-({4-[(4-methylpiperazin-1-yl)methyl]phenyl}-amino)phenyl]-N-/(3,4,5-trimethoxyphenyl)imidazo[5,1-f][1,2,4]triazin-2-amine]
16 | 0.1 to 10 | COc1ccc(Nc2ncc3c(C)nc(-c4cn(C)c5ccccc45)n3n2)cc1 [Example 76, 5-Methyl-7-(1-methyl-1H-indol-3-yl)-N-[4-(methyloxy)phenyl]imidazo[5,1-f][1,2,4]triazin-2-amine]
17 | 0.1 to 10 | COC(=O)c1ccc(-c2nc(C)c3cnc(Nc4cc(OC)c(OC)c(OC)c4)nn23)cc1 [Example 29, Methyl 4-{5-methyl-2-[(3,4,5-trimethoxyphenyl)amino]imidazo-[5,1-f][1,2,4]triazin-7-yl}benzoate]
18 | > 10 | COc1cc(Nc2ncc3c(C)nc(-c4cccc(Nc5ccc(-n6ccnc6)cc5)c4)n3n2)cc(OC)c1OC [Example 65, 7-(3-{[4-(1H-Imidazol-1-yl)phenyl]amino}phenyl)-5-nv-5-methyl-N-(3,4,5-trimethoxyphenyl)imidazo[5,1-f][1,2,4]triazin-2-amine]

Row | IC50 [µM] | Structure (SMILES)
19 | > 10 | COc1ccc(Nc2ncc3c(C)nc(-c4cc5ccccc5n4C)n3n2)cc1 [Example 78, 5-Methyl-7-(1-methyl-1H-indol-2-yl)-N-[4-(methyloxy)phenyl]imidazo[5,1-f][1,2,4]triazin-2-amine]
20 | 0.1 to 10 | COc1cc(Nc2ncc3c(C)nc(-c4sccc4Br)n3n2)cc(OC)c1OC [Example 10, 7-(3-Bromothien-2-yl)-5-methyl-N-(3,4,5-trimethoxyphenyl)-imidazo[1,5-f][1,2,4]triazin-2-amine]
21 | 0.1 to 10 | COc1ccc(Nc2ncc3c(C)nc(-c4ccco4)n3n2)cc1 [Example 81, 7-(2-Furanyl)-5-methyl-N-[4-(methyloxy)phenyl]imidazo-[5,1-f][1,2,4]triazin-2-amine]
22 | 0.1 to 10 | COc1cc(Nc2ncc3c(C)nc(-c4cccc(-c5ccccc5C(F)(F)F)c4)n3n2)cc(OC)c1OC [Example 61, 5-Methyl-7-[2′-(trifluoromethyl)-1,1′-biphenyl-3-yl]-N-(3,4,5-trimethoxyphenyl)imidazo[5,1-f][1,2,4]triazin-2-amine]
23 | 0.1 to 10 | COC(=O)c1cccc(-c2nc(C)c3cnc(Nc4cc(OC)c(OC)c(OC)c4)nn23)c1 [Example 12, Methyl 3-{5-methyl-2-[(3,4,5-trimethoxyphenyl)amino]imidazo[5,1-f][1,2,4]triazin-7-yl}benzoate]
24 | 0.1 to 10 | COc1ccc(Nc2ncc3c(C)nc(CC4CCCCC4)n3n2)cc1 [Example 91, 7-(Cyclohexylmethyl)-5-methyl-N-[4-(methyloxy)phenyl]-imidazo[5,1-f][1,2,4]triazin-2-amine]
25 | 0.1 to 10 | CC(=O)Nc1ccc(Nc2ncc3c(C)nc(-c4ccccc4)n3n2)cc1 [Example 94, N-{4-[(5-Methyl-7-phenylimidazo[5,1-f][1,2,4]triazin-2-yl)amino]phenyl}acetamide]
26 | 0.1 to 10 | Cc1nc(-c2ccccc2)n2nc(Nc3ccc(S(N)(=O)=O)cc3)ncc12 [Example 20, 4-[(5-Methyl-7-phenylimidazo[5,1-f][1,2,4]triazin-2-yl)amino]benzenesulfonamide]
27 | 0.1 to 10 | COc1ccc(F)cc1Nc1ncc2c(C)nc(-c3cccc(C(F)(F)F)c3)n2n1 [Example 51, N-(5-Fluoro-2-methoxyphenyl)-5-methyl-7-[3-(trifluoromethyl)phenyl]-imidazo[5,1-f][1,2,4]triazin-2-amine]
28 | 0.1 to 10 | COc1ccc(Nc2ncc3c(C)nc(Cc4ccccc4)n3n2)cc1 [Example 88, 5-Methyl-N-[4-(methyloxy)phenyl]-7-(phenylmethyl)imidazo[5,1-f][1,2,4]triazin-2-amine]
29 | 0.1 to 10 | COc1ccc(Nc2ncc3c(C)nc(-c4ccc(F)cc4)n3n2)cc1 [Example 82, 7-(4-Fluorophenyl)-5-methyl-N-[4-(methyloxy)phenyl]-imidazo[5,1-f][1,2,4]triazin-2-amine]
30 | 0.1 to 10 | COc1cc(Nc2ncc3c(C)nc(C4CCCCC4)n3n2)cc(OC)c1OC [Example 90, 7-Cyclohexyl-5-methyl-N-[3,4,5-tris(methyloxy)phenyl]imidazo[5,1-f][1,2,4]triazin-2-amine]
31 | < 0.1 | COc1ccc(CCNC(C)=O)cc1Nc1ncc2c(C)nc(-c3cccc(C(F)(F)F)c3)n2n1 [Example 52, N-{2-[4-Methoxy-3-({5-methyl-7-[3-(trifluoromethyl)phenyl]-imidazo[5,1-f][1,2,4]triazin-2-yl}amino)phenyl]ethyl}acetamide]
32 | 0.1 to 10 | COc1ccc(Nc2ncc3c(C)nc(-c4ccoc4)n3n2)cc1 [Example 80, 7-(3-Furanyl)-5-methyl-N-[4-(methyloxy)phenyl]imidazo-[5,1-f][1,2,4]triazin-2-amine]
33 | 0.1 to 10 | COc1ccc(Nc2ncc3c(C)nc(-c4ccccc4F)n3n2)cc1 [Example 86, 7-(2-FluorophenylFluorophenyl)-5-methyl-N-[4-(methyloxy)phenyl]imidazo[5,1-f][1,2,4]triazin-2-amine]
34 | 0.1 to 10 | COc1ccc(Nc2ncc3c(C)nc(-c4ccccc4)n3n2)cc1OC [Example 92, N-[3,4-Bis(methyloxy)phenyl]-5-methyl-7-phenylimidazo[5,1-f][1,2,4]triazin-2-amine]
35 | 0.1 to 10 | COc1cc(Nc2ncc3c(C)nc(-c4ccc(Br)s4)n3n2)cc(OC)c1OC [Example 13, 7-(5-Bromothien-2-yl)-5-methyl-N-(3,4,5-trimethoxyphenyl)imidazo-[5,1-f][1,2,4]triazin-2-amine]
